Measurements taken from patent US20210323929A1, “Purified Detomidine, Process of Preparing and Methods of Use” (Clexio Biosciences Ltd., priority 2018, published 2021).
Read-outs that look alike come from different tables or passages of the source.

What was measured:
Assay type in all cases: physicochemical
[1] = Hydration study by DVS analysis (hydration-dehydration cycles versus relative humidity)
Experimental: Melting points (m.p.) of the intermediate detomidine free base and hydrochloride of Sample 5 measured in open capillary corresponded with the published literature and the DSC data and are presented in Table 5. In order to evaluate effect of humidity on different forms of detomidine, a hydration study was performed. Samples of detomidine free base and hydrochloride salt were subjected to DVS analysis. These observations are in accordance with the DVS results shown in FIGS. 5 and 6, for detomidine free base and detomidine HCl, respectively.
During the dehydration cycle, the monohydrate began to lose water at RH˜10% and converted into the anhydrate at RH=0%.
At the same time, the anhydrous form is not stable in atmospheric air and absorbs water at RH=30-50%.

[2] = Solid form stability of the vacuum dried anhydrate, hermetically closed or exposed to atmospheric air
Experimental: The same monohydrate dried at elevated temperature (30-40 mbar 90° C.) converted completely into the anhydrous form.

[3] = Re-slurry in water: conversion of the solid form without complete dissolution; conditions: contact with water for 24 hrs, re-slurry at 24° C.
[4] = Solubility in water (observation on the solid forms)

## Cc1cccc(Cc2c[nH]cn2)c1C [Sample 2]
[1]; anhydrous detomidine HCl after hydration
  water level after absorption, cKF: 7.7%

## Cc1cccc(Cc2c[nH]cn2)c1C [anhydrous form]
[2]; after exposure to atmospheric air
  water uptake and form conversion after exposure to atmospheric air: absorbed water and converted to a mixture of anhydrate and monohydrate
[2]; vacuum dried, hermetically closed
  water uptake and form conversion, hermetically closed: did not absorb water from the atmosphere and did not convert into the monohydrate
[1]; atmospheric air
  stability in atmospheric air: not stable
[1]; hydration cycle
  RH at which the anhydrate absorbs water / transforms completely into the monohydrate: 30-50%
  RH at which the anhydrate did not absorb water: < 30%
[3]
  form conversion on contact with water: completely converted

## Cc1cccc(Cc2c[nH]cn2)c1C [detomidine free base, 4-[(2,3-dimethylphenyl)methyl]-1H-imidazole]
[1]; DVS, 24.4° C. (FIG. 5)
  hygroscopicity: non-hygroscopic
[1]; at relative humidity (RH)>50%
  water absorbed: more than 1%
[4]
  solubility in water: insoluble in water

## Cc1cccc(Cc2c[nH]cn2)c1C.Cl [detomidine hydrochloride]
[1]; four cycles of hydration-dehydration
  reproducibility of anhydrate-monohydrate interconversion: good reproducibility
[4]; water, hydrochloride formed with aqueous HCl
  solubility in water: soluble

## Cc1cccc(Cc2c[nH]cn2)c1C [monohydrate]
[1]; RH 70% to RH>90%
  absorption of additional water on increase of humidity: did not lead to absorption of additional water
[1]; dehydration cycle
  RH at which the monohydrate began to lose water: ~10%
  RH at which the monohydrate converted into the anhydrate: 0%
